Source: patent publication US5610160A, “Topical 5-fluorouracil prodrug composition and method” (priority 1994, dated 1997)
Converted amounts (≈) assume the structure as drawn. Where two headings read alike, the source gives them in different places.

What was measured:
[1] = 22° C., cited from earlier work
[2] = cited from earlier work
[3] = Solubility of prodrug in isopropyl myristate (IPM); settings: for solubility: isopropyl myristate, organic solvent or mixture
Procedure: The results from the determination of the physicochemical properties are recorded in the tables as CIPM (the saturated solubility of the prodrug in the isopropyl myristate (IPM) vehicle/formulation in which the prodrug was applied to the mouse skins), K (the partition coefficients of the prodrug between IPM and a pH 4.0 acetate buffer) and Cw (the solubility of the prodrug in pH 4.0 acetate buffer calculated from the partition coefficient and the IPM solubility).

skin malignancies = settings: topical, cited from earlier work
[4] = Diffusion cell experiments: delivery of 5-FU through hairless mouse skin; assay type: in vitro ADME; settings: for Jj, flux of theophylline through the skin after application of the prodrug/formulation (relative damage): theophylline from suspension in PG
Procedure: The diffusion cell experiments were conducted as described by Sloan et al in J. Invest.
^b Flux in mg/cm^2 hour of 5FU from suspensions of prodrugs in
^c Amount of 5FU in mg leached from hairless mouse skin in 24 hours
subsequent to application of prodrug in vehicle for 48 hours.
^d Flux in mg/cm^2 hour of theophylline from suspension in PG.

[5] = 37° C., 0.05 M phosphate buffer pH 7.4; Buur et al (1984); cited from earlier work
[6] = Partition coefficient between IPM and pH 4.0 acetate buffer; assay type: physicochemical; settings: 23 ± 1° C.
Description: ^a Partition coefficient between IPM and pH 4.0 acetate buffer at 23

[7] = shake-flask, brief shaking, IPM phase analyzed immediately; settings: 23 ± 1 °C
[8] = 37° C., 80% human plasma; Buur et al (1984); cited from earlier work
not told = settings: 22 °C; cited from earlier work

Structure (SMILES) | Cw, solubility at pH 4.0 acetate buffer ([1]; Buur et al (1986), compound 11 from Buur et al (1987)) [mg/ml] | log K, octanol/pH 4.0 acetate buffer ([2]; octanol/acetate buffer, pH 4) | solubility [3] [µg/mL] | treating superficial lesions (skin malignancies; actinic keratoses and basal cell carcinomas) | treating deeper lesions or actinic keratoses of the extremities (skin malignancies) | Ji, flux of 5-FU through the skin ([4]; from suspensions of prodrugs in IPM, hairless mouse skin) [mg/cm^2 hour] | Cs, amount of 5-FU in the skin ([4]; leached from hairless mouse skin in 24 hours subsequent to application of prodrug in vehicle for 48 hours) [mg] | Jj, flux of theophylline through the skin after application of the prodrug/formulation (relative damage) [4] [mg/cm^2 hour] | Cw, solubility at pH 4.0 acetate buffer ([1]; Buur et al (1984)) [mg/ml] | log K, octanol/pH 4.0 acetate buffer ([2]; 22° C., Int. J. Pharm. 21, 349, Buur et al (1984)) | Half-life, Buffer [5] [min] | K, partition coefficient between IPM and pH 4.0 acetate buffer [6] | CIPM, equivalent mg of 5FU/ml ([3]; IPM, 23 ± 1° C., value in parentheses) | log partition isopropyl myristate / pH 4.0 acetate buffer [7] [concentration ratio] | Half-life, 80% Plasma [8] [min] | log partition octanol / pH 4.0 acetate buffer (not told) [log10 concentration ratio]
O=c1[nH]cc(F)c(=O)[nH]1 [Compound 5-FU, 5-fluorouracil] | 11.1 | -0.83 | 6.4 (≈ 0.0492 mM) | successful | ineffective | 0.0311 | 0.48 | 0.215 | – | – | – | – | – | – | – | –
CCC(=O)n1c(=O)[nH]cc(F)c1=O [Compound 14] | – | – | 2620 (≈ 14.1 mM) | – | – | – | – | 0.318 | 35.3 | 0.19 | 50 | 0.088 | 1.83 equivalent mg of 5FU/ml | 0.088 | 20 | 0.19
